Data taken from patent US10201617B2, “3-substituted piperidine-2, 6-diones and non-covalent complexes with albumin” (Zhuhai Beihai Biotech Co., Ltd., priority 2014, dated 2019).

Experiments:
[1] = regardless of pH; cited from earlier work
CYP1A2 = biological target: T1, CYP1A2 (Homo sapiens, UniProt P05177); conditions: cited from earlier work
T1 sequence (P05177 1-516): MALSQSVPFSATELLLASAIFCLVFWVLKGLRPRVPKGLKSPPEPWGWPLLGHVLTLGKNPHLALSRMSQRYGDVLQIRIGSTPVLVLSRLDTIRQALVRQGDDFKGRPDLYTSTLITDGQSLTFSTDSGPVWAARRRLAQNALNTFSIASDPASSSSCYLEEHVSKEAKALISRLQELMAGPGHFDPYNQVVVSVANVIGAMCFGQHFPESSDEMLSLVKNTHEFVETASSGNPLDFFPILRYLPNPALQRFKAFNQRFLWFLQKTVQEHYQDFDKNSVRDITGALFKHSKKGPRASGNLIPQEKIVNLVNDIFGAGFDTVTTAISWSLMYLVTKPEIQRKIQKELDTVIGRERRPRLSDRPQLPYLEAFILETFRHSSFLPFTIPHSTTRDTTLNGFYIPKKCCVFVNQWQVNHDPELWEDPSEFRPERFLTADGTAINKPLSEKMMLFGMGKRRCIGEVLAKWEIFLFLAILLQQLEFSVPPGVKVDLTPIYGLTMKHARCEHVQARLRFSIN

CYP3A = conditions: cited from earlier work
[2] = Persistence in plasma: incubation with human plasma at 37° C., LC-MS/MS; type: in vitro ADME; conditions: for Peak Area Ratio (Analyte/incubation sample): Human Plasma
Description: Test compounds and control (procaine) were incubated at a concentration of 10 μM with human plasma. […]
After quenching by acetonitrile, the plates were capped, vortexed, and centrifuged at 3000 rpm for 10 minutes. The supernatant was injected into LC-MS/MS.

[3] = Persistence control: incubation in PBS buffer (pH 7.4) at 37° C., LC-MS/MS; type: physicochemical; conditions: for Peak Area Ratio (Analyte/incubation sample): PBS Buffer, 24 hr; for % Remaining after 24-hr Incubation at 37° C.: PBS buffer

SMILES	solubility [1]	substrate of CYP1A2 liver enzyme (CYP1A2)	substrate of CYP3A liver enzyme (CYP3A)	Peak Area Ratio (Analyte/incubation sample) ([2]; 0 hr, Replicate 1)	Peak Area Ratio (Analyte/incubation sample) ([2]; 0 hr, Replicate 2)	Peak Area Ratio (Analyte/incubation sample) ([2]; 24 hr, Replicate 1)	Peak Area Ratio (Analyte/incubation sample) ([2]; 24 hr, Replicate 2)	% Remaining after 24-hr Incubation at 37° C. ([2]; human, plasma, 24 h, 10 μM)	Peak Area Ratio (Analyte/incubation sample) ([3]; Replicate 1)	Peak Area Ratio (Analyte/incubation sample) ([3]; Replicate 2)	% Remaining after 24-hr Incubation at 37° C. ([3]; Average)	% Remaining after 24-hr Incubation at 37° C. ([3]; Replicate 1)	% Remaining after 24-hr Incubation at 37° C. ([3]; Replicate 2)
Nc1cccc2c1C(=O)N(C1CCC(=O)NC1=O)C2=O (stereo not shown) [pomalidomide]	about 0.01 mg/mL	substrate	substrate	–	–	–	–	–	–	–	–	–	–
CCN(CC)CCOC(=O)c1ccc(N)cc1 [Procaine, procaine]	–	–	–	0.311	0.451	0.0	0.0	0.0%	0.413	0.419	109%	108.40%	109.97%
